Measurements as given in US6667312B2, “Thioether substituted imidazoquinolines” (3M Innovative Properties Company, priority 2000, dated 2003).

Experiments:
[1] = system: interferon (α); experiment: Cytokine Induction in Human Cells: interferon; type: cell-based; settings: human PBMC, 18 to 24 hours, tested 30-0.014 μM, interferon (α) by ELISA; read-out: Lowest Effective Concentration (μM) Interferon
From the text: (§1) An in vitro human blood cell system is used to assess cytokine induction. Activity is based on the measurement of interferon and tumor necrosis factor (α) (IFN and TNF, respectively) secreted into culture media as described by Testerman et. al. In “Cytokine Induction by the Immunomodulators Imiquimod and S-27609”, Journal of Leukocyte Biology, 58, 365-372 (September, 1995).
(§2) Whole blood from healthy human donors is collected by venipuncture into EDTA vacutainer tubes. Peripheral blood mononuclear cells (PBMC) are separated from whole blood by density gradient centrifugation using Histopaque®-1077. Blood is diluted 1:1 with Dulbecco's Phosphate Buffered Saline (DPBS) or Hank's Balanced Salts Solution (HBSS). The PBMC layer is collected and washed twice with DPBS or HBSS and resuspended at 4×10^6 cells/mL in RPMI complete. The PBMC suspension is added to 48 well flat bottom sterile tissue culture plates (Costar, Cambridge, Mass. or Becton Dickinson Labware, Lincoln Park, N.J.) containing an equal volume of RPMI complete media containing test compound.
(§3) The compounds are solubilized in dimethyl sulfoxide (DMSO). The DMSO concentration should not exceed a final concentration of 1% for addition to the culture wells. The compounds are generally tested at concentrations ranging from 30-0.014 μM.
(§4) The solution of test compound is added at 60 μM to the first well containing RPMI complete and serial 3 fold dilutions are made in the wells. The PBMC suspension is then added to the wells in an equal volume, bringing the test compound concentrations to the desired range (30-0.014 μM). The final concentration of PBMC suspension is 2×10^6 cells/mL. The plates are covered with sterile plastic lids, mixed gently and then incubated for 18 to 24 hours at 37° C. in a 5% carbon dioxide atmosphere.
(§5) Following incubation the plates are centrifuged for 10 minutes at 1000 rpm (˜200× g) at 4° C. The cell-free culture supernatant is removed with a sterile polypropylene pipet and transferred to sterile polypropylene tubes. Samples are maintained at −30 to −70° C. until analysis. The samples are analyzed for interferon (α) by ELISA and for tumor necrosis factor (α) by ELISA or IGEN Assay
Interferon (α) concentration is determined by ELISA using a Human Multi-Species kit from PBL Biomedical Laboratories, New Brunswick, N.J. Results are expressed in pg/mL.
(§6) The table below lists the lowest concentration found to induce interferon and the lowest concentration found to induce tumor necrosis factor for each compound.

[2] = system: tumor necrosis factor (α); experiment: Cytokine Induction in Human Cells: tumor necrosis factor; type: cell-based; design: key to Lowest Effective Concentration (μM) Tumor Necrosis Factor: A “*” indicates that no induction was seen at any of the tested concentrations; settings: human PBMC, 18 to 24 hours, tested 30-0.014 μM, TNF by ELISA or IGEN assay; for minimal effective concentration: read-out: Lowest Effective Concentration (μM) Tumor Necrosis Factor
From the text: as §1, §2, §3, §4, §5
Tumor necrosis factor (α) (TNF) concentration is determined using ELISA kits available from Biosource International, Camarillo, Calif. Alternately, the TNF concentration can be determined by Origen® M-Series Immunoassay and read on an IGEN M-8 analyzer from IGEN International, Gaithersburg, Md. The immunoassay uses a human TNF capture and detection antibody pair from Biosource International, Camarillo, Calif. Results are expressed in pg/mL.
as §6

Compound: Cc1nc2c(N)nc3ccccc3c2n1CCS(C)(=O)=O [Example 33, 2-methyl-1-[2-(methylsulfonyl)ethyl]-1H-imidazo[4,5-c]quinolin-4-amine]
- minimal effective concentration [1]: 3.33 µM
- minimal effective concentration [2]: 10 µM
- melting point: 242 to 245 °C

Compound: CCCCCCc1nc2c(N)nc3ccccc3c2n1CCCCCS(C)(=O)=O [Example 15, 2-hexyl-1-[5-(methylsulfonyl)pentyl]-1H-imidazo[4,5-c]quinolin-4-amine]
- minimal effective concentration [1]: 0.04 µM
- Lowest Effective Concentration (μM) Tumor Necrosis Factor [2]: *
- melting point: 168 to 171 °C

Compound: CS(=O)(=O)CCCCCn1cnc2c(N)nc3ccccc3c21 [Example 14, 1-[5-(methylsulfonyl)pentyl]-1H-imidazo[4,5-c]quinolin-4-amine]
- minimal effective concentration [1]: 3.33 µM
- minimal effective concentration [2]: 10 µM
- melting point: 199 to 201 °C

Compound: Nc1nc2ccccc2c2c1ncn2CCCCCS(=O)(=O)c1ccccc1 [Example 69, 1-[5-(phenylsulfonyl)pentyl]-1H-imidazo[4,5-c]quinolin-4-amine]
- minimal effective concentration [1]: 1.11 µM
- minimal effective concentration [2]: 1.11 µM
- melting point: 171 to 172 °C

Compound: CCCc1nc2c(N)nc3ccccc3c2n1CCS(C)(=O)=O [Example 36, 1-[2-(methylsulfonyl)ethyl]-2-propyl-1H-imidazo[4,5-c]quinolin-4-amine]
- minimal effective concentration [1]: 1.11 µM
- minimal effective concentration [2]: 1.11 µM
- melting point: 212 to 214 °C

Compound: Cc1nc2c(N)nc3ccccc3c2n1CCCCCS(C)(=O)=O [Example 12, 2-methyl-1-[5-(methylsulfonyl)pentyl]-1H-imidazo[4,5-c]quinolin-4-amine]
- minimal effective concentration [1]: 0.12 µM
- minimal effective concentration [2]: 10 µM
- melting point: 235 to 240 °C

Compound: CCCCc1nc2c(N)nc3ccccc3c2n1CCCCS(=O)(=O)c1ccccc1 [Example 3, 2-butyl-1-[4-(phenylsulfonyl)butyl]-1H-imidazo[4,5-c]quinolin-4-amine]
- minimal effective concentration [1]: 0.04 µM
- minimal effective concentration [2]: 0.12 µM
- melting point: 179 to 180 °C

Compound: COCCc1nc2c(N)nc3ccccc3c2n1CCCCCS(C)(=O)=O [Example 16, 2-(2-methoxyethyl)-1-[5-(methylsulfonyl)pentyl]-1H-imidazo[4,5-c]quinolin-4-amine]
- minimal effective concentration [1]: 0.01 µM
- minimal effective concentration [2]: 0.04 µM
- melting point: 158 to 160 °C

Compound: CSCCCCn1c(C)nc2c(N)nc3ccccc3c21 [Example 26, 2-methyl-1-[4-(methylthio)butyl]-1H-imidazo[4,5-c]quinolin-4-amine]
- minimal effective concentration [1]: 0.04 µM
- minimal effective concentration [2]: 0.37 µM
- melting point: 190 to 193 °C

Compound: CSCCCn1c(C)nc2c(N)nc3ccccc3c21 [Example 22, 2-methyl-1-[3-(methylthio)propyl]-1H-imidazo[4,5-c]quinolin-4-amine]
- minimal effective concentration [1]: 0.37 µM
- minimal effective concentration [2]: 1.11 µM
- melting point: 199 to 202 °C

Compound: CS(=O)(=O)CCCCn1cnc2c(N)nc3ccccc3c21 [Example 8, 1-[4-(methylsulfonyl)butyl]-1H-imidazo[4,5-c]quinolin-4-amine]
- minimal effective concentration [1]: 10 µM
- Lowest Effective Concentration (μM) Tumor Necrosis Factor [2]: *
- melting point: 203 to 204 °C

Compound: CCc1nc2c(N)nc3ccccc3c2n1CCS(C)(=O)=O [Example 35, 2-ethyl-1-[2-(methylsulfonyl)ethyl]-1H-imidazo[4,5-c]quinolin-4-amine]
- minimal effective concentration [1]: 1.11 µM
- minimal effective concentration [2]: 3.33 µM
- melting point: 222 to 225 °C

Compound: Cc1nc2c(N)nc3ccccc3c2n1CCCS(C)(=O)=O [Example 23, 2-methyl-1-[3-(methylsulfonyl)propyl]-1H-imidazo[4,5-c]quinolin-4-amine]
- minimal effective concentration [1]: 3.33 µM
- minimal effective concentration [2]: 10 µM
- melting point: 225 to 228 °C

Compound: CCCCc1nc2c(N)nc3ccccc3c2n1CCCCS(=O)(=O)c1ccc(F)cc1F [Example 38, 2-butyl-1-{4-[(2,4-difluorophenyl)sulfonyl]butyl}-1H-imidazo[4,5-c]quinolin-4-amine]
- minimal effective concentration [1]: 0.37 µM
- minimal effective concentration [2]: 1.11 µM
- melting point: 190 to 193 °C

Compound: CSCCCCn1cnc2c(N)nc3ccccc3c21 [Example 10, 1-[4-(methylthio)butyl]-1H-imidazo[4,5-c]quinolin-4-amine]
- minimal effective concentration [1]: 1.11 µM
- minimal effective concentration [2]: 1.11 µM
- melting point: 163 to 164 °C

Compound: CS(=O)(=O)CCCCCn1c(C(F)(F)F)nc2c(N)nc3ccccc3c21 [Example 71, 1-[5-(methylsulfonyl)pentyl]-2-(trifluoromethyl)-1H-imidazo[4,5-c]quinolin-4-amine]
- minimal effective concentration [1]: 30 µM
- Lowest Effective Concentration (μM) Tumor Necrosis Factor [2]: *
- melting point: 192 to 195 °C

Compound: CCCCc1nc2c(N)nc3ccccc3c2n1CCCCSc1ccccc1 [Example 1, 2-butyl-1-[4-(phenylthio)butyl]-1H-imidazo[4,5-c]quinolin-4-amine]
- minimal effective concentration [1]: 0.12 µM
- minimal effective concentration [2]: 0.12 µM
- melting point: 118 to 120 °C

Compound: CCCCc1nc2c(N)nc3ccccc3c2n1CCS(C)(=O)=O [Example 67, 2-butyl-1-[2-(methylsulfonyl)ethyl]-1H-imidazo[4,5-c]quinolin-4-amine]
- minimal effective concentration [1]: 0.01 µM
- minimal effective concentration [2]: 0.04 µM
- melting point: 226 to 228 °C

Compound: CSCCn1c(C)nc2c(N)nc3ccccc3c21 [Example 32, 2-methyl-1-[2-(methylthio)ethyl]-1H-imidazo[4,5-c]quinolin-4-amine]
- minimal effective concentration [1]: 0.12 µM
- minimal effective concentration [2]: 0.12 µM
- melting point: 193 to 195 °C

Compound: CCCCc1nc2c(N)nc3ccccc3c2n1CCCS(=O)(=O)c1ccccc1 [Example 20, 2-butyl-1-[3-(phenylsulfonyl)propyl]-1H-imidazo[4,5-c]quinolin-4-amine]
- minimal effective concentration [1]: 0.04 µM
- minimal effective concentration [2]: 0.37 µM
- melting point: 224 to 227 °C

Compound: CCCCc1nc2c(N)nc3ccccc3c2n1CCCCSc1ccc(F)cc1F [Example 37, 2-butyl-1-{4-[(2,4-difluorophenyl)thio]butyl}-1H-imidazo[4,5-c]quinolin-4-amine]
- minimal effective concentration [1]: 0.37 µM
- minimal effective concentration [2]: 1.11 µM
- melting point: 122 to 126 °C

Compound: CCc1nc2c(N)nc3ccccc3c2n1CCCCSC [Example 28, 2-ethyl-1-[4-(methylthio)butyl]-1H-imidazo[4,5-c]quinolin-4-amine]
- minimal effective concentration [1]: 0.01 µM
- minimal effective concentration [2]: 0.37 µM
- melting point: 183 to 186 °C

Compound: Nc1nc2ccccc2c2c1ncn2CCCCSc1ccccc1 [Example 9, 1-[4-(phenylthio)butyl]-1H-imidazo[4,5-c]quinolin-4-amine]
- minimal effective concentration [1]: 3.33 µM
- minimal effective concentration [2]: 3.33 µM
- melting point: 158 to 160 °C

Compound: CCc1nc2c(N)nc3ccccc3c2n1CCCS(C)(=O)=O [Example 25, 2-ethyl-1-[3-(methylsulfonyl)propyl]-1H-imidazo[4,5-c]quinolin-4-amine]
- minimal effective concentration [1]: 0.37 µM
- minimal effective concentration [2]: 3.33 µM
- melting point: > 250 °C

Compound: CCc1nc2c(N)nc3ccccc3c2n1CCCCS(C)(=O)=O [Example 29, 2-ethyl-1-[4-(methylsulfonyl)butyl]-1H-imidazo[4,5-c]quinolin-4-amine]
- minimal effective concentration [1]: 0.12 µM
- minimal effective concentration [2]: 3.33 µM
- melting point: 182 to 185 °C

Compound: CCc1nc2c(N)nc3ccccc3c2n1CCCCSc1ncccn1 [Example 72, 2-ethyl-1-[4-(pyrimidin-2-ylthio)butyl]-1H-imidazo[4,5-c]quinolin-4-amine]
- melting point: 182 to 185 °C

Compound: CCOCc1nc2c(N)nc3c(c2n1CCCCS(C)(=O)=O)CCCC3 [Example 79, 2-ethoxymethyl-1-(4-methanesulfonyl-butyl)-6,7,8,9-tetrahydro-1H-imidazo[4,5-c]quinolin-4-amine]
- melting point: 170 to 171 °C
